Where a name gives a salt, the structure may show the parent alone. Read-outs that look alike come from different tables or passages of the source.
Experiments:
thrombin and factor Xa = conditions: rate of inactivation, thrombin relative to factor Xa; cited from earlier work
factor Xa [1] = molecular target: T1, factor Xa (Homo sapiens, UniProt P00742); conditions: cited from earlier work
factor Xa [2] = molecular target: T1, factor Xa; assay: In vitro Factor Xa assay (Test 1a), chromogenic substrate S-2765; type: biochemical; set-up: purchased Enzyme Research Laboratories, Inc; South Bend, Ind; conditions: Factor Xa inhibitory activity; Ki from IC50 corrected for substrate competition; 0.5 nM enzyme, 140 μM S-2765, 25° C.
Excerpt: The ability of a compound of formula I to inhibit factor Xa, thrombin, plasmin, elastase and trypsin may be assessed by determining the concentration of compound of formula I that inhibits enzyme activity by 50% (IC50). Purified enzymes are used in chromogenic assays. To determine the inhibition constant, the IC50 value is corrected for competition with substrate using the formula:
Ki=IC50×(1/{1+((substrate concentration)/substrate Km)})
where Km is the Michaelis-Menten-constant (Y.-C. Chen and W.H. Prusoff, Biochem. Pharmacol. 22: […] (1973), which is incorporated herein by reference).
TBS-PEG buffer (50 mM Tris-Cl, pH 7.8, 200 mM NaCl, 0.05% (w/v) PEG-8000, 0.02% (w/v) NaN3) is used for this assay. The IC50 is determined by combining in appropriate wells of a Costar half-area microtiter plate 25 μl human factor Xa (Enzyme Research Laboratories, Inc.; South Bend, Ind.) in TBS-PEG; 40 μl 10% (v/v) DMSO in TBS-PEG (uninhibited control) or various concentrations of the compound to be tested diluted in 10% (v/v) DMSO in TBS-PEG; and substrate S-2765 (N-benzyloxycarbonyl-D-Arg-Gly-L-Arg-p-nitroanilide; Kabi Pharmacia, Inc.; Franklin Ohio) in TBS-PEG.
The assays are performed by pre-incubating the compound of formula I plus enzyme for 10 min, then the assay is initiated by adding substrate to obtain a final volume of 100 μl. The initial velocity of chromogenic substrate hydrolysis is measured by the change in absorbance at 405 nm using a Bio-tek Instruments kinetic plate reader (Ceres UV900HDi) at 25° C. during the linear portion of the time course (usually 1.5 min after addition of substrate). The concentration of inhibitor that causes a 50% decrease in the rate of substrate hydrolysis is predicted by linear regression after plotting the relative rates of hydrolysis (compared to the uninhibited control) versus the log of the compound of formula I concentration. The enzyme concentration is 0.5 nM and substrate concentration is 140 μM.

T1 sequence (P00742 235-488 limits assumed): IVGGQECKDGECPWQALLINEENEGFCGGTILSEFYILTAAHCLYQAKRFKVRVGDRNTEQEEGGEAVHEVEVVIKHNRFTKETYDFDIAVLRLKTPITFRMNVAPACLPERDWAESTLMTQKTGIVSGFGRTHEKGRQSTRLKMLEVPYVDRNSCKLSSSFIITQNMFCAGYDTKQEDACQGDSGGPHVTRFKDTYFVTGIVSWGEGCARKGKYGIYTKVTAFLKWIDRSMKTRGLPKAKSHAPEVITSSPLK
T1 sequence (P00742 41-179 partner limits assumed): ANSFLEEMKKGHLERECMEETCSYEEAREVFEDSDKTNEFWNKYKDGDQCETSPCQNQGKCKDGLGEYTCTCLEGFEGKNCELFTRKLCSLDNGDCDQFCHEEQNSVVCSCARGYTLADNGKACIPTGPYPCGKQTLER

Row | Molecule | Ki (factor Xa [2]) | further results
1 | N=C(N)c1ccc(CC(C(=O)NCc2ccccc2)C(=O)N[C@H](C(=O)NCCN2CCNCC2)C2CCCCC2)cc1.O=C(O)C(F)(F)F (stereo partly drawn) |  | melting point: 196 °C (dec.)
2 | CC(C)(C)OC(=O)N1CCN(CCNC(=O)[C@@H](NC(=O)C(Cc2ccc(C(=N)N)cc2)C(=O)NCc2ccccc2)C2CCCCC2)CC1.O=C(O)C(F)(F)F (stereo partly drawn) |  | melting point: 125 to 128 °C
3 | heparin |  | thrombin inactivated faster than factor Xa (thrombin and factor Xa): approximately 100 times
4 | TAP: tick anticoagulant peptide, isolated from the tick Ornithodoros moubata, contains 60 amino acids; inhibitor of factor Xa (YNRLCIKPRDWIDECDSNEGGERAYFRNGKGGCDSFWICPEDHTGADYYSSYRDCFNACI; UniProt P17726 1-60, looked up) |  | Ki (factor Xa [1]): ~0.5 nM
5 | CN(C)C(=O)C(Cc1ccc(C(=N)N)cc1)C(=O)N[C@H](C(=O)N[C@@H](CCCNC(=N)N)C(=O)N1CCN(S(=O)(=O)c2ccc3ccc(Cl)cc3c2)CC1)C1CCCCC1 (mixture of isomers) [Example 45, 2-(R,S)-(4-Carbamimidoyl-benzyl)-N-({1-(S)-[4-(7-chloro-naphthalene-2-sulfonyl)-piperazine-1-carbonyl]-4-guanidino-butylcarbamoyl}-(S)-cyclohexyl-methyl)-N′,N′dimethyl-malonamide hydrochloric acid salt] | 12 nM | 
6 | CN(C)C(=O)C(Cc1ccc(C(=N)N)cc1)C(=O)N[C@H](C(=O)NCc1cccc(CN)c1)C1CCCCC1 (stereo partly drawn) [Example 63, N-[((S)-3-Aminomethyl-benzylcarbamoyl)-cyclohexyl-methyl]-2-(R,S)-(4-carbamimidoyl-benzyl)-N′,N′-dimethyl-malonamide trifluoroacetic acid salt] | 2360 nM | 
7 | CN(C)C(=O)C(Cc1ccc(C(=N)N)cc1)C(=O)N[C@H](C(=O)NCC1CCNCC1)C1CCCCC1 (mixture of isomers) [Example 47, 2-(R,S)-(4-Carbamimidoyl-benzyl)-N-{(S)-cyclohexyl-[(piperidin-4-ylmethyl)-carbamoyl]-methyl}-N′,N′-dimethyl-malonamide hydrochloric acid salt] | 460 nM | 
8 | N=C(N)NCCC[C@H](NC(=O)[C@@H](NC(=O)C(Cc1ccc(C(=N)N)cc1)C(=O)N1CCCC1C(=O)O)C1CCCCC1)C(N)=O (single isomer, unassigned; less polar) [Example 35] | 84 nM | 
9 | CN(C)C(=O)C(Cc1ccc(C(=N)N)cc1)C(=O)N[C@H](C(=O)NC(Cc1ccc(C(=N)N)cc1)C(N)=O)C1CCCCC1 (mixture of isomers) [Example 87, 2-(R,S)-(4-Carbamimidoyl-benzyl)-N-{(S)-[2-(4-carbamimidoyl-phenyl)-1-carbamoyl-ethylcarbamoyl]-cyclohexyl-methyl}N′,N′-dimethyl-malonamide acetic acid salt] | 170 nM | 

— patent US6395737B1, “Malonic acid derivatives, processes for their preparation, for their use and pharmaceutical compositions containing them” (Aventis Pharma Deutschland GmbH, priority 1999, dated 2002)
